Measurements from patent US10004713B2 (SICHUAN JIUZHANG BIOLOGICAL SCIENCE AND TECHNOLOGY CO., LTD, priority 2014, dated 2018).

How the values were obtained:
[1] = tested on: human brain glioma; assay: Inhibitory effect of chlorogenic acid on transplanted glioma in mice (tumor weight); format: in vivo; settings: 15 d; for Tumor weight: x ± s
Method: (1) Model establishment 50 mice were divided into 5 groups, 10 mice for each group. The solution of brain glioblastoma cell lines was suitably diluted, and inoculated in cortex of left temporal lobe of mice in five groups, respectively.
(2) Administration and intervention After inoculated for 24 h, five groups of mice were administrated by intraperitoneal injection. […] (3) Measuring inhibitory rate On the last day, administration was ceased, and all mice were sacrificed. Mice were dissected, and tissue of tumor was removed and weighed. Inhibitory Rate=(the Mean Tumor Weight of Control Group−the Mean Tumor Weight of Treatment Group)/the Mean Tumor Weight of Control Group×100%. (4) Statistical method The data were presented as mean±standard deviation (x±s), and statistical analysis was performed using SPSS15.0 software, and p<0.05 was considered to be a statistically significant difference. 3. Results

[2] = tested on: C6 glioma stem cells; assay: In vitro inhibitory effect against C6 glioma stem cells by MTT method; format: cell-based, rat; settings: 48 h; for OD values 1: replicate 1; for OD values 2: replicate 2; for OD values 3: replicate 3
Method: (§1) 3. Cell line: C6 rat glioma cell lines for experiment is provided by Key Laboratory of Transplant Engineering and Immunology, Ministry of health, West China Hospital, Sichuan University.
(1) C6 cells were seeded in traditional serum medium and sub-cultured in culture bottle. Cells in exponential phase of growth were washed with PBS solution, digested with 0.25% trypsin, and pipetted by self-made pasteur pipette, to form single cells. Cells were resuspended in SFM, stained with trypan blue, and counted. Cells were seeded in culture bottle with a bottom area of 25 cm^2 at a concentration of 1×10^5/well, and placed in an incubator at 37° C. with 5% CO2 and saturated humidity for culture.
The medium was sucked out and centrifuged before half of old medium was removed, then centrifuged at 800 rpm/min for 5 min. The supernatant was discarded. Cells are resuspended in SFM, and gentle pipette with self-made pasteur pipette was repeated, for dissociating cell dumps into single cells. In a ratio of 1:2 or 1:3, cells were seeded in culture bottles with a bottom area of 25 cm^2, and diluted with SFM to 6 ml; alternatively, at the same concentration, cells were seeded in 6 well plate. To each well, was added 2.5 ml SFM, and continued culturing in an incubator at 37° C. with 5% CO2 and saturated humidity.
(1) Cells, growing in serum-containing medium and serum-free medium and presenting exponential growth phase, were taken out, and digested with pancreatin, to form single cells. Tumor cells were still seeded in serum-containing medium, while tumor stem cells were seeded in serum-free medium. Their concentrations were both adjusted to 2.0×10^5/ml, and cells were seeded in 96 well plate, 100 μl for each well. […] Culture was carried out in an incubator at 37° C. with 5% CO2 and saturated humidity for one night. When seeding in 96 well plate, peripheral wells were not used to avoid the edge effect.
(§2) (2) Next day after inoculation, cells attached before administration was carried out and static culture was kept for 48 h.
(§3) (3) Wells for normal control group of tumor cells were included, and the wells were not treated with drug, and only equal amount (100 μl) of complete medium was added. Experiment on normal control group was performed, together with above three groups.
(§4) (4) The culture was continued under 5% CO2 at 37° C., and after culturing for 48 h, cells were placed under inverted microscope for observation and taking a picture.
(§5) (5) On sterile bench board, 20 μL 0.5% MTT was added to each well, and the culture was continued for 4 h. At 37° C., the culture was stood for overnight (same time for each group), then OD values were tested using microplate reader, while the absorbance of each well was measured at […].
(§6) (6) Calculating inhibitory rate of cell growth Formula: Inhibitory rate of cell growth IR (%)=1−(OD value of cells in experimental group/OD value of cells in control group)×100%. (III) Statistical Analysis

[3] = tested on: C6 glioma cells; assay: In vitro inhibitory effect against C6 glioma cells by MTT method; format: cell-based, rat; settings: 48 h; for OD values 1: replicate 1; for OD values 2: replicate 2; for OD values 3: replicate 3
Method: as §1
(1) Cells, growing in serum-containing medium and serum-free medium and presenting exponential growth phase, were taken out, and digested with pancreatin, to form single cells. Tumor cells were still seeded in serum-containing medium, while tumor stem cells were seeded in serum-free medium. Their concentrations were both adjusted to 2.0×10^5/ml, and cells were seeded in 96 well plate, 100 μl for each well. Amongst, four groups were experimental groups, and one group was negative control; the medium without cells was used as blank control, and each group had five repeated wells. Culture was carried out in an incubator at 37° C. with 5% CO2 and saturated humidity for one night. When seeding in 96 well plate, peripheral wells were not used to avoid the edge effect.
as §2, §3, §4, §5, §6

[4] = tested on: human brain oligodendroglioma cells; assay: Inhibitory effect of chlorogenic acid on proliferation of primary culture human brain oligodendroglioma cells (MTT method / WST-1); format: cell-based; settings: 48 h
[5] = Rattus norvegicus, 16 μg/ml, read-out: Inhibitory rate (%)
[6] = Rattus norvegicus, 32 μg/ml, read-out: Inhibitory rate (%)
[7] = Rattus norvegicus, 64 μg/ml, read-out: Inhibitory rate (%)
[8] = Rattus norvegicus, 128 μg/ml, read-out: Inhibitory rate (%)
[9] = High dose 40 mg/kg intraperitoneal
[10] = Low dose 10 mg/kg intraperitoneal

In the case of `CC(=O)O[C@@]12CO[C@@H]1C[C@H](O)[C@@]1(C)C(=O)[C@H](O)C3=C(C)[C@@H](OC(=O)[C@H](O)[C@@H](NC(=O)OC(C)(C)C)c4ccccc4)C[C@@](O)([C@@H](OC(=O)c4ccccc4)[C@H]21)C3(C)C` [Positive control group, docetaxel, reference compound], the “Inhibitory rate (%)” value ([1]; 5 mg/kg intraperitoneal) is reported as 73.3% and the “Tumor weight” value ([1]; 5 mg/kg intraperitoneal) is reported as 0.389 ± 0.305 g.

With `O=C(/C=C/c1ccc(O)c(O)c1)O[C@@H]1C[C@](O)(C(=O)O)C[C@@H](O)[C@H]1O` [chlorogenic acid] the OD values mean ([2]; 16 μg/ml) was 1.715, the “OD values 1” value ([2]; 16 μg/ml) was 1.713 and the “OD values 2” value ([2]; 16 μg/ml) was 1.700. The “OD values 3” value ([2]; 16 μg/ml) was 1.731, the OD values mean ([2]; 32 μg/ml) was 1.634 and the “OD values 1” value ([2]; 32 μg/ml) was 1.533. The “OD values 2” value ([2]; 32 μg/ml) was 1.739, the “OD values 3” value ([2]; 32 μg/ml) was 1.631 and the OD values mean ([2]; 64 μg/ml) was 1.378. The “OD values 1” value ([2]; 64 μg/ml) was 1.367, the “OD values 2” value ([2]; 64 μg/ml) was 1.358 and the “OD values 3” value ([2]; 64 μg/ml) was 1.410. The OD values mean ([2]; 128 μg/ml) was 1.223, the “OD values 2” value ([2]; 128 μg/ml) was 1.200 and the inhibition at 16 µg/mL [2, 5] was 23.2%. It also gave an inhibition at 32 µg/mL [2, 6] of 26.8%, an inhibition at 64 µg/mL [2, 7] of 38.2% and an inhibition at 128 µg/mL [2, 8] of 45.2%. For the same compound, the OD values mean ([3]; 16 μg/ml) was 1.515, the “OD values 1” value ([3]; 16 μg/ml) was 1.640 and the “OD values 2” value ([3]; 16 μg/ml) was 1.553. For the same compound, the “OD values 3” value ([3]; 16 μg/ml) was 1.351, the OD values mean ([3]; 32 μg/ml) was 1.472 and the “OD values 1” value ([3]; 32 μg/ml) was 1.558. For the same compound, the “OD values 2” value ([3]; 32 μg/ml) was 1.573, the “OD values 3” value ([3]; 32 μg/ml) was 1.286 and the OD values mean ([3]; 64 μg/ml) was 1.326. For the same compound, the “OD values 1” value ([3]; 64 μg/ml) was 1.314, the “OD values 2” value ([3]; 64 μg/ml) was 1.247 and the “OD values 3” value ([3]; 64 μg/ml) was 1.417. The OD values mean ([3]; 128 μg/ml) was 1.028, the “OD values 1” value ([3]; 128 μg/ml) was 1.021 and the “OD values 2” value ([3]; 128 μg/ml) was 1.023. The “OD values 3” value ([3]; 128 μg/ml) was 1.041, the inhibition at 16 µg/mL [3, 5] was 32.1% and the inhibition at 32 µg/mL [3, 6] was 34%. For the same compound, the inhibition at 64 µg/mL [3, 7] was 40.6%, the inhibition at 128 µg/mL [3, 8] was 53.9% and the “Cellular morphology under inverted microscope” value ([4]; compared with normal control group) was “obvious decrease of cell numbers”. The inhibition at 32 µg/mL ([4]; Homo sapiens, 32 μg/ml, read-out: Inhibitory rate (%)) was 39.9%, the inhibition at 64 µg/mL ([4]; Homo sapiens, 64 μg/ml, read-out: Inhibitory rate (%)) was 44.9% and the inhibition at 128 µg/mL ([4]; Homo sapiens, 128 μg/ml, read-out: Inhibitory rate (%)) was 60.4%. The “Inhibitory rate (%)” value [1, 9] was 60.58%, the “Tumor weight” value [1, 9] was 0.529 ± 0.168 g and the “Inhibitory rate (%)” value [1, 10] was 48.51%. For the same compound, the “Tumor weight” value [1, 10] was 0.690 ± 0.188 g and the “Inhibitory rate (%)” value ([1]; Middle dose 20 mg/kg intraperitoneal) was 69.92%.
